Assay results taken from ChEMBL document CHEMBL1132822, “2,4,5-Trisubstituted imidazoles: novel nontoxic modulators of P-glycoprotein mediated multidrug resistance. Part 2” (Bioorg Med Chem Lett, 2000).
pEC50: −log10 of the molar value.

Columns and labels:
[1] = target: ATP-dependent translocase ABCB1 (Homo sapiens, UniProt P08183); experiment: Modulation of Pgp (P-glycoprotein) mediated multidrug resistance in CEM / VLB 1000 cell line; assay type: functional, cell-based, CCRF-CEM; conditions: read-out: ED50 (the source's name)
ATP-dependent translocase ABCB1, sequence (P08183 whole entry): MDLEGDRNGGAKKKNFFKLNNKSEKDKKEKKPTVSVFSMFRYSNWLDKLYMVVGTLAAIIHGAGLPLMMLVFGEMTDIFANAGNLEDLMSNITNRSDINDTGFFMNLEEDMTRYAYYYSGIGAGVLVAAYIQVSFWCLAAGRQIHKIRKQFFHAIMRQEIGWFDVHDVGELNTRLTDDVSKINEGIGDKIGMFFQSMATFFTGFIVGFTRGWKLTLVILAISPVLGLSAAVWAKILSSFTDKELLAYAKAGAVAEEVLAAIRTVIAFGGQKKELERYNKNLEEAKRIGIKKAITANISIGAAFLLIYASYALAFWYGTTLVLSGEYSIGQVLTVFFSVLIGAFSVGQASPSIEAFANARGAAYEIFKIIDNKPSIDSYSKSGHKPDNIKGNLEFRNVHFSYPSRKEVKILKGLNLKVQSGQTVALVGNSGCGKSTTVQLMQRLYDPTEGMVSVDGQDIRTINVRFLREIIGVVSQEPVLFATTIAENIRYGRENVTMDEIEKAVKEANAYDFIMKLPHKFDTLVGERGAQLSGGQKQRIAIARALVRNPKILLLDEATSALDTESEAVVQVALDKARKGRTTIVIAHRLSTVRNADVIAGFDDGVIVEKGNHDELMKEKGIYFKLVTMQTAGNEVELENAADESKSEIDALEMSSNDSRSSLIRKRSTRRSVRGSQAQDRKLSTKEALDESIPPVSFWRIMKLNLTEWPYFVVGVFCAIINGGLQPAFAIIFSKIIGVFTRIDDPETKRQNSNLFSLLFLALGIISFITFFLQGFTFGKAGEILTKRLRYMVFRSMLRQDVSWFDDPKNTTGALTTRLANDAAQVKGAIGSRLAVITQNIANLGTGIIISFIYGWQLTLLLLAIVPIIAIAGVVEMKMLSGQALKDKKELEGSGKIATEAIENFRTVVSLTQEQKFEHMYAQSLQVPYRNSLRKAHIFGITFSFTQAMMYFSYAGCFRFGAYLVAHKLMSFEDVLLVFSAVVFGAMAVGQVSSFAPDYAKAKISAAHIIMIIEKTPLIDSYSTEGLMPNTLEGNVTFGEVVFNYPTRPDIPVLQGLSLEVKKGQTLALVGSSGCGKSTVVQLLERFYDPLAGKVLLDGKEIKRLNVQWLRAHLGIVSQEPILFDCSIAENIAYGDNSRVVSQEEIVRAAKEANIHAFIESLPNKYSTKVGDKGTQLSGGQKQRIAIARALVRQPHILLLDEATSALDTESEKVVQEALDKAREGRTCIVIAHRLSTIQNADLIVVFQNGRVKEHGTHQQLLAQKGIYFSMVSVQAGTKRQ

Canis familiaris = experiment: (§1) Oral bioavailability in dog (dose 10 mg/kg); assay type: functional, organism-based; conditions: Canis lupus familiaris
[2] = Half life in Dog plasma at a dosage 5 mg/kg after intravenous administration; assay type: ADME, organism-based, Canis lupus familiaris; parameters: dose 5 mg/kg, route intravenous
Homo sapiens = experiment: Compound concentration in plasma of healthy human (male) after 3-4h of 400 mg dose of compound given orally; assay type: functional
[3] = as §1; assay type: ADME, organism-based, Canis lupus familiaris; conditions: in vivo

## CCOC/C=C/c1ccc(-c2nc(-c3ccc(N4CCOCC4)cc3)c(-c3ccc(N4CCOCC4)cc3)[nH]2)cc1
[1]
  pEC50: 6.66

## CCOC/C=C/c1ccc(-c2nc(-c3ccc(F)cc3)c(-c3ccc(NC(C)C)cc3)[nH]2)cc1
Canis familiaris
  bioavailability: 45%
[2]
  half-life: 1.27 h
[1]
  pEC50: 6.80

## CNc1ccc(-c2[nH]c(-c3ccc(/C=C/C(=O)OC)cc3)nc2-c2ccc(NC(C)C)cc2)cc1
[1]
  pEC50: 6.92

## CCCN(CCC)c1ccc(-c2c[nH]c(-c3ccc(/C=C/COCC)cc3)n2)cc1
[1]
  pEC50: 6.55

## CCOC/C=C/c1ccc(-c2nc(-c3ccc(N(CC)CC)cc3)c(-c3ccc(N(CC)CC)cc3)[nH]2)cc1
[1]
  pEC50: 6.59

## CCOC/C=C/c1ccc(-c2nc(-c3ccc(NC(C)C)cc3)c(-c3ccc(NC(C)C)cc3)[nH]2)cc1
Canis familiaris
  bioavailability: 41%
Homo sapiens
  Concentration: 3 µM
[2]
  half-life: 2.79 h
[1]
  pEC50: 7.30

## CCOC/C=C/c1ccc(-c2nc(-c3ccc(N4CCOCC4)cc3)c[nH]2)cc1
[1]
  pEC50: 6.43

## COC(=O)/C=C/c1ccc(-c2nc(-c3ccc(N(C)C)cc3)c(-c3ccc(N(C)C)cc3)[nH]2)cc1
[1]
  pEC50: 6.52

## CCOC/C=C/c1ccc(-c2nc(-c3ccc(NCC(C)C)cc3)c[nH]2)cc1
[1]
  pEC50: 6.60

## CCOC/C=C/c1ccc(-c2nc(-c3ccc(N(C)C)cc3)c(-c3ccc(N(C)C)cc3)[nH]2)cc1
[2]
  half-life: 0.5 h
[1]
  pEC50: 7.10
[3]
  bioavailability: 35%

## CCOC/C=C/c1ccc(-c2nc(-c3ccc(NC)cc3)c(-c3ccc(N4CCCC4)cc3)[nH]2)cc1
[1]
  pEC50: 6.82

## CCOC/C=C/c1ccc(-c2nc(-c3ccc(NC(C)C)cc3)c[nH]2)cc1
[1]
  pEC50: 6.47

## CCNc1ccc(-c2[nH]c(-c3ccc(/C=C/COCC)cc3)nc2-c2ccc(NC(C)C)cc2)cc1
[1]
  pEC50: 7.30

## COC(=O)/C=C/c1ccc(-c2nc(-c3ccc(N)cc3)c(-c3ccc(N(C)C)cc3)[nH]2)cc1
[1]
  pEC50: 6.23

## CCOC/C=C/c1ccc(-c2nc(-c3ccc(NC(C)C)cc3)c(-c3ccc(NC)cc3)[nH]2)cc1
Canis familiaris
  bioavailability: 36%
[2]
  half-life: 1.35 h
[1]
  pEC50: 7.30

## CCOC/C=C/c1ccc(-c2nc(-c3ccc(N(CC)CC)cc3)c[nH]2)cc1
[1]
  pEC50: 6.52

## CCN(CC)c1ccc(-c2[nH]c(-c3ccc(/C=C/C(=O)OC)cc3)nc2-c2ccc(NC)cc2)cc1
[1]
  pEC50: 7.15

## CCN(CC)c1ccc(-c2[nH]c(-c3ccc(/C=C/C(=O)OC)cc3)nc2-c2ccc(N)cc2)cc1
[1]
  pEC50: 6.51

## C=CCN(CC=C)c1ccc(-c2nc(-c3ccc(/C=C/C(=O)OC)cc3)[nH]c2-c2ccc(N(CC=C)CC=C)cc2)cc1
[1]
  pEC50: 5.26

## CCN(CC)c1ccc(-c2nc(-c3ccc(/C=C/C(=O)OC)cc3)[nH]c2-c2ccc(N(CC)CC)cc2)cc1
[1]
  pEC50: 6.24

## CNc1ccc(-c2nc(-c3ccc(/C=C/C(=O)OC)cc3)[nH]c2-c2ccc(NC)cc2)cc1
[1]
  pEC50: 6.70

## CNc1ccc(-c2[nH]c(-c3ccc(/C=C/CCOC)cc3)nc2-c2ccc(N(C)C)cc2)cc1
[1]
  pEC50: 6.96

## CCCN(CCC)c1ccc(-c2[nH]c(-c3ccc(/C=C/C(=O)OC)cc3)nc2-c2ccc(NC)cc2)cc1
[1]
  pEC50: 6.74

## COC(=O)/C=C/c1ccc(-c2nc(-c3ccc(N4CCCC4)cc3)c(-c3ccc(N4CCCC4)cc3)[nH]2)cc1
[1]
  pEC50: 6.43

## CCOCC/C=C/c1ccc(-c2nc(-c3ccc(NC)cc3)c(-c3ccc(N(CC)CC)cc3)[nH]2)cc1
[1]
  pEC50: 7.22

## CNc1ccc(-c2[nH]c(-c3ccc(/C=C/C(=O)OC)cc3)nc2-c2ccc(N(C)C)cc2)cc1
[1]
  pEC50: 6.89

## CCCCN(CCCC)c1ccc(-c2[nH]c(-c3ccc(/C=C/C(=O)OC)cc3)nc2-c2ccc(NC)cc2)cc1
[1]
  pEC50: 5.68
